Assay [1] has as its target His-tagged KRAS G12D protein (Homo sapiens, UniProt P01116, G12D). In words: KRAS G12D TR-FRET Assay. The assay is classed as binding. On the procedure:
KRAS G12D TR-FRET Assay Compounds of interest were prepared in a dose-response titration in DMSO, and 80 nL were added via Labcyte Echo to each well of a 384-well plate (Perkin Elmer 6008280). The His-tagged KRAS G12D protein (Amgen) was diluted to 20 nM in Assay Buffer (20 mM HEPES, pH 7.4, 10 mM MgCl2, 50 mM NaCl, 0.1% BSA, 0.01% Tween-20, 10 μM GDP) and 2 uL was added to the appropriate wells of the 384-well plate. The plate was incubated for 30 minutes at room temperature. Biotinylated KRPep-2d substrate (Amgen) was diluted to 20 nM in Assay Buffer and 2 μL was added to all wells and incubated for 1 hour at room temperature. Detection Reagent (0.4 nM LANCE Eu-W1024 Anti-6×-His (Perkin Elmer AD0401), 5 nM streptavidin-d2 (Cisbio 610SADLA)) was prepared in Assay Buffer, then 4 μL was added to the plate and incubated for 1 hour at room temperature. Plates were read using PerkinElmer EnVision (ex: 320 nm, em1: 665 nm, em2: 615 nm) and em1/em2 data was used to generate curve fits using a 4-parameter logistic model to calculate IC50 values.
A general note: In TR-FRET formats the signal depends on donor and acceptor labels being close together.

For assay [2], the target named is GDP-bound KRAS protein (aa 1-169), containing both G12D and C118A amino acid substitutions (Homo sapiens, UniProt P01116, C118A/G12D). The assay is described as follows: KRAS G12D Coupled Nucleotide Exchange Assay. The assay is classed as biochemical. Here is the method: KRAS G12D Coupled Nucleotide Exchange Assay
Following compound pre-incubation, purified SOS protein (aa 564-1049) and GTP (Roche 10106399001) were added to the assay wells and incubated for an additional 30 min. […] The assay plates were then read on a PerkinElmer EnVision Multilabel Reader, using AlphaScreen® technology, and data were analyzed using a 4-parameter logistic model to calculate IC50 values.

For assay [3], the system named is Phosphorylation of ERK1/2 in AsPC-1 cells. In words: Phospho-ERK1/2 MSD Assay. The class given is cell-based. Here is the method: AsPC-1 (ATCC® CRL-1682™) cells were cultured in RPMI 1640 Medium (ThermoFisher Scientific 11875093) containing 10% fetal bovine serum (ThermoFisher Scientific 16000044) and Ix penicillin-streptomycin-glutamine (ThermoFisher Scientific 10378016). Sixteen hours prior to compound treatment, AsPC-1 cells were seeded in 96-well cell culture plates at a density of 25,000 cells/well and incubated at 37° C., 5% CO2. A compound dose-response titration was diluted in growth media, added to appropriate wells of a cell culture plate, and then incubated at 37° C., 5% CO2 for 2 h. Following compound treatment, cells were washed with ice-cold Dulbecco's phosphate-buffered saline, no Ca^2+ or Mg^2+ (ThermoFisher Scientific 14190144), and then lysed in RIPA buffer (50 mM Tris-HCl pH 7.5, 1% Igepal, 0.5% sodium deoxycholate, 150 mM NaCl, and 0.5% sodium dodecyl sulfate) containing protease inhibitors (Roche 4693132001) and phosphatase inhibitors (Roche 4906837001). Phosphorylation of ERK1/2 in compound-treated lysates was assayed using Phospho-ERK1/2 Whole Cell Lysate kits (Meso Scale Discovery K151DWD) according to the manufacturer's protocol. Assay plates were read on a Meso Scale Discovery Sector Imager 6000, and data were analyzed using a 4-parameter logistic model to calculate IC50 values.

The mark [4] stands for this setting: read-out: 2 h p-ERK (AsPC-1 cells), IC50, AsPC-1 cells, 2 h compound treatment.
Setting [5] is: Homo sapiens, ASPC1, 2 h, read-out: 2 h p-ERK (AsPC-1 cells), IC50, AsPC-1 cells, 2 h compound treatment.

Molecules are shown by their SMILES. pIC50: −log10 of the molar value. Like-named read-outs stand apart in the source and are kept apart here.

GDP-bound KRAS protein (aa 1-169), containing both G12D and C118A amino acid substitutions, sequence (P01116 1-169 isoform P01116-2 G12D/C118A): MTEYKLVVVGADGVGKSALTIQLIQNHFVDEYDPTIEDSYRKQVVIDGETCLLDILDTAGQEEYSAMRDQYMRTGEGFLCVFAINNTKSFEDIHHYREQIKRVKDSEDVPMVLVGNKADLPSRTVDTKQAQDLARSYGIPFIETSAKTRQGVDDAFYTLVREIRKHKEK
His-tagged KRAS G12D protein, sequence (P01116 1-188 isoform P01116-2 G12D): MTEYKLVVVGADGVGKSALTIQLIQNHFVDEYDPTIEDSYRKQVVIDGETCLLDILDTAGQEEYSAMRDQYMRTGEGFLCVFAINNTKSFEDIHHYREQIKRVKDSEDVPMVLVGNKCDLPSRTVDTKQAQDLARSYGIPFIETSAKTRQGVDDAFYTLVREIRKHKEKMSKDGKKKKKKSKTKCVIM

As a reminder, the pIC50 is the negative decadic logarithm of the IC50, by convention in mol/L. As usually defined, the IC50 is the concentration needed to halve the response being measured. As for `CCc1c(F)ccc2cc(O)cc(-c3c(F)cc4c(N5CCCC6(CNC(=O)O6)C5)nc(OC[C@@]56CCCN5C[C@H](F)C6)nc4c3F)c12` (single isomer, unassigned) [Example 59], the pIC50 was 7.68 in assay [1] and 7.41 in assay [3] (setting [4]). The molecule further yielded an IC50 in assay [2] of 8 nM.

Turning to `CCc1c(F)ccc2cc(N)cc(-c3c(F)cc4c(N5CCC[C@@](C)(O)C5)nc(OC[C@@]56CCCN5C[C@H](F)C6)nc4c3F)c12` (single isomer, unassigned) [Example 62], the pIC50 in assay [1] is 7.77; in assay [3] (setting [5]) it was 6.55. For the same molecule, the half-maximal inhibitory concentration (IC50) in assay [2] was 2 nM.

In the case of `C#Cc1c(F)ccc2cccc(-c3c(F)cc4c(N5CCC[C@@](C)(O)C5)nc(OC[C@@]56CCCN5C[C@H](F)C6)nc4c3F)c12` (single isomer, unassigned) [Example 67], the negative logarithm of the IC50 (pIC50) in assay [1] is 8.40; in assay [3] (setting [5]), 6.47. The molecule also had an IC50 in assay [2] of 3 nM.

Regarding `CCc1c(F)ccc2cc(N)cc(-c3c(F)cc4c(N5CCOCC(C)(O)C5)nc(OC[C@@]56CCCN5C[C@H](F)C6)nc4c3F)c12` (single isomer, unassigned) [Example 71], the pIC50 in assay [1] was 6.95; in assay [3] (setting [4]), 5.85. Besides, in assay [2], the half-maximal inhibitory concentration (IC50) came out at 14 nM.

Regarding `CCc1c(F)ccc2cc(N)cc(-c3c(F)cc4c(N5CCOCC(C)(O)C5)nc(OC[C@@]56CCCN5C[C@H](F)C6)nc4c3F)c12` (single isomer, unassigned) [Example 72], the pIC50 is 8.10 in assay [1] and 6.82 in assay [3] (setting [4]). The concentration for half-maximal inhibition (IC50) in assay [2] is 2 nM.

Regarding `CCc1c(F)ccc2cc(O)cc(-c3ccc4c(N5CCC[C@]6(CCO6)C5)nc(OC[C@@]56CCCN5C[C@H](F)C6)nc4c3F)c12` (single isomer, unassigned) [Example 76], the pIC50 in assay [1] is 8.30; in assay [3] (setting [5]), 8.05. In assay [2], this molecule had an IC50 of 3 nM.

Take `CCc1c(F)ccc2cc(O)cc(-c3c(F)cc4c(N5CCC[C@]6(CNC(=O)O6)C5)nc(OC[C@@H]5C[C@@H](F)CN5C)nc4c3F)c12` (single isomer, unassigned) [Example 80]: the pIC50 in assay [1] is 8.40; in assay [3] (setting [5]), 8.15. Moreover, the IC50 in assay [2] is 2 nM.

Regarding `C[C@@]1(O)COCCN(c2nc(OC[C@@]34CCCN3C[C@H](F)C4)nc3c(F)c(-c4cc(O)cc5ccc(F)c(Cl)c45)c(F)cc23)C1` (single isomer, unassigned) [Example 81], the results for the pIC50 in assay [1] and in assay [3] (setting [5]) were 8.30 and 8.10, respectively. Moreover, the IC50 in assay [2] was found to be 4 nM.

For the molecule `C[C@@]1(O)COCCN(c2nc(OC[C@@]34CCCN3C[C@H](F)C4)nc3c(F)c(-c4cc(O)cc5ccc(F)c(Cl)c45)ccc23)C1` (single isomer, unassigned) [Example 82], the pIC50 in assay [1] is 8.30; in assay [3] (setting [5]), 7.62. For the same molecule, the IC50 in assay [2] stood at 2 nM.

`CCc1c(F)ccc2cc(O)cc(-c3ccc4c(N5CCC[C@]6(COC(=O)O6)C5)nc(OC[C@@]56CCCN5C[C@H](F)C6)nc4c3F)c12` (single isomer, unassigned) [Example 86]: the pIC50 in assay [1] is 8.22; in assay [3] (setting [5]) it was 7.28. In addition, the IC50 in assay [2] came to 4 nM.

As to `CCc1c(F)ccc2cc(O)cc(-c3ccc4c(N5CCC[C@]6(CNC(=O)O6)C5)nc(OC[C@@]56CCCN5C[C@H](F)C6)nc4c3F)c12` (single isomer, unassigned) [Example 88], the pIC50 was 7.82 in assay [1] and 7.89 in assay [3] (setting [5]). This molecule showed an IC50 in assay [2] of 6 nM.

As for `CCc1c(F)ccc2cc(O)cc(-c3ccc4c(N5CCC[C@@]6(CNC(=O)O6)C5)nc(OC[C@@]56CCCN5C[C@H](F)C6)nc4c3F)c12` (single isomer, unassigned) [Example 89], the pIC50 was 8.15 in assay [1] and 7.85 in assay [3] (setting [5]). In assay [2], this molecule came in with an IC50 of 5 nM.

In the case of `CCc1c(F)ccc2cc(O)cc(-c3c(F)cc4c(N5CCC[C@]6(CCO6)C5)nc(OC[C@@]56CCCN5C[C@H](F)C6)nc4c3F)c12` (single isomer, unassigned) [Example 90], the pIC50 was 8.30 in assay [1] and 8.15 in assay [3] (setting [5]). In addition, the IC50 in assay [2] was found to be 3 nM.

With `CCc1c(F)ccc2cc(O)cc(-c3c(F)cc4c(N5CCC[C@]6(C5)C[C@@H](O)C6)nc(OC[C@@]56CCCN5C[C@H](F)C6)nc4c3F)c12` (single isomer, unassigned) [Example 91], the pIC50 was 8.30 in assay [1] and 7.80 in assay [3] (setting [5]). Moreover, the IC50 in assay [2] came to 3 nM.

With `CCc1c(F)ccc2cc(O)cc(-c3c(F)cc4c(N5CCC[C@]6(COC(=O)O6)C5)nc(OC[C@@]56CCCN5C[C@H](F)C6)nc4c3F)c12` (single isomer, unassigned) [Example 93], the pIC50 was 8.15 in assay [1] and 7.55 in assay [3] (setting [5]). The molecule also had an IC50 in assay [2] of 5 nM.

Take `CCc1c(F)ccc2cc(O)cc(-c3c(F)cc4c(N5CCC[C@]6(CCS(=O)(=O)C6)C5)nc(OC[C@@]56CCCN5C[C@H](F)C6)nc4c3F)c12` (single isomer, unassigned) [Example 94]: the pIC50 is 8.40 in assay [1] and 7.59 in assay [3] (setting [5]). Further, the 50% inhibitory concentration (IC50) in assay [2] is 4 nM.

Take `CCc1c(F)ccc2cc(N)cc(-c3c(F)cc4c(N5CCC[C@]6(CNC(=O)O6)C5)nc(OC[C@@]56CCCN5C[C@H](F)C6)nc4c3F)c12` (single isomer, unassigned) [Example 97]: the pIC50 in assay [1] is 8.40; in assay [3] (setting [5]) it was 7.54. The IC50 in assay [2] was 2 nM.

As for `C[C@@H]1C[C@@H]1c1c(Cl)cc2[nH]ncc2c1-c1c(F)cc2c(N3CCOC[C@@](C)(O)C3)nc(OC[C@@]34CCCN3C[C@H](F)C4)nc2c1F` (single isomer, unassigned) [Example 98], the negative logarithm of the IC50 (pIC50) was 8.15 in assay [1] and 7.55 in assay [3] (setting [5]). The same molecule yielded an IC50 in assay [2] of 3 nM.

For `C[C@@H]1CC1c1c(Cl)cc2[nH]ncc2c1-c1c(F)cc2c(N3CCOCC(O)(CF)C3)nc(OC[C@@]34CCCN3C[C@H](F)C4)nc2c1F` (single isomer, unassigned) [Example 99], the figures for the negative logarithm of the IC50 (pIC50) in assay [1] and in assay [3] (setting [5]) were 8.05 and 7.03, respectively. Also, in assay [2], the IC50 came to 5 nM.

Regarding `Cc1cc2[nH]ncc2c(-c2c(F)cc3c(N4CCC[C@](O)(CF)C4)nc(OC[C@@]45CCCN4C[C@H](F)C5)nc3c2F)c1C1CC1` (single isomer, unassigned) [Example 100], the results for the pIC50 in assay [1] and in assay [3] (setting [5]) were 8.40 and 7.05, respectively. The molecule further displayed an IC50 in assay [2] of 3 nM.

Take `C/C=C\c1c(Cl)cc2[nH]ncc2c1-c1c(F)cc2c(N3CCC[C@](O)(CF)C3)nc(OC[C@@]34CCCN3C[C@H](F)C4)nc2c1F` (single isomer, unassigned) [Example 101]: the pIC50 was 8.30 in assay [1] and 7.41 in assay [3] (setting [5]). In assay [2], this molecule registered an IC50 of 3 nM.

Consider `C/C=C\c1c(C)cc2[nH]ncc2c1-c1c(F)cc2c(N3CCC[C@](O)(CF)C3)nc(OC[C@@]34CCCN3C[C@H](F)C4)nc2c1F` (single isomer, unassigned) [Example 102], for which the results for the negative-log IC50 (pIC50) in assay [1] and in assay [3] (setting [5]) were 8.40 and 7.44, respectively. Besides, the concentration for half-maximal inhibition (IC50) in assay [2] was 3 nM.

In the case of `C/C=C\c1c(C)cc2[nH]ncc2c1-c1c(F)cc2c(N3CCOC[C@@](C)(O)C3)nc(OC[C@@]34CCCN3C[C@H](F)C4)nc2c1F` (single isomer, unassigned) [Example 104], the pIC50 in assay [1] is 8.70; in assay [3] (setting [5]) it was 7.52. Moreover, in assay [2], the IC50 was determined as 1 nM.

On to `Cc1cc2[nH]ncc2c(-c2ccc3c(N4CCC[C@@](C)(O)C4)nc(OC[C@@]45CCCN4C[C@H](F)C5)nc3c2F)c1[C@H]1C[C@H]1C` (single isomer, unassigned) [Example 107], for which the results for the pIC50 in assay [1] and in assay [3] (setting [5]) were 8.40 and 6.78, respectively. Moreover, in assay [2], the concentration for half-maximal inhibition (IC50) stood at 3 nM.

The values are drawn from US20250179077A1, “QUINAZOLINE COMPOUNDS AND USES THEREOF AS INHIBITORS OF MUTANT KRAS PROTEINS” (AMGEN INC., priority 2022, published 2025).
